Experimental data as given in patent US4775758A, “Phospholipids” (Takeda Chemical Industries, Ltd., priority 1983, dated 1988).

How the values were obtained:
[1] = test system: sarcoma 180 cells; test: Antitumor activity (simultaneous administration), intraperitoneal sarcoma 180, life span; format: in vivo, ICR mice; settings: for rate of life prolongation against the control group: 1 mg/mouse i.p. after i.p. transplantation of 1×10^5 sarcoma 180 cells, ICR mice
Procedure: Antitumor activity (simultaneous administration) of 1,3-dioctyloxypropane-2-yl 2-trimethylammonioethyl phosphate (Example 1)
Sarcoma 180 cells (1×10^5 cells per mouse) was transplanted intraperitoneally to ICR mice (a group consisting of 5 mice). Subsequently, the compound of Example 1 (1 mg/mouse) was dissolved in physiological saline, and administered intraperitoneally to each of the mice. In the group given the drug compound, two mice survived 60 days, and the rate of life prolongation against the control group not given the drug compound was 458.

[2] = test system: Saccharomyces cerevisiae; test: Antifungal action, MIC by serial dilution technique; format: cell-based; settings: 1% glucose bouillon agar
[3] = test system: sarcoma 180 cells; test: Antitumor activity, subcutaneous sarcoma 180, intraperitoneal administration, tumor weight; format: in vivo; settings: 0.2 mg/mouse i.p., 13 times, 2nd to 20th day; tumor weight on 21st day; sarcoma 180 s.c., ICR mice
Procedure: (§1) Antitumor activity of 1,3-dioctyloxypropane-2-yl 2-trimethylammonioethyl phosphate (Example 1)
Sarcoma 180 cells (1×10^6 cells) were transplanted subcutaneously to each of ICR mice (a group consisting of 5 mice). The compound of Example 1 was administered intraperitoneally to the mice at the single dose rate of 0.2 mg/mouse 13 times over the period of from the 2nd day to the 20th day. On the 21th day, the mice were anatomized, and the weight of tumors was measured.

[4] = test system: Mucor spinescens; test: Antifungal action, MIC by serial dilution technique; format: cell-based; settings: 1% glucose bouillon agar
[5] = test system: sarcoma 180 cells; test: Antitumor activity (pre-administration), intraperitoneal sarcoma 180, life span; format: in vivo; settings: 1 mg/mouse i.p., 4 days before i.p. transplantation of 1×10^5 sarcoma 180 cells; ICR mice
Procedure: Antitumor activity (pre-administration) of 1,3-dioctyloxypropane-2-yl 2-trimethylammonioethyl phosphate (Example 1)
A 1 mg/mouse of the compound of Example 1 was admixed with physiological saline, and administered intraperitoneally to ICR mice (a group consisting of 5 mice). Four days later, 1×10^5 sarcoma 180 cells per mouse was transplanted intraperitoneally to each of the mice.

[6] = test system: sarcoma 180 cells; test: Antitumor activity, subcutaneous sarcoma 180, intravenous administration, tumor weight; format: in vivo; settings: 0.06 mg/mouse i.v., 9 times, 7th to 20th day; tumor weight on 21st day; sarcoma 180 s.c., ICR mice
Procedure: as §1
Sarcoma 180 cells (1×10^6 cells) were transplanted subcutaneously to each of ICR mice (a group consisting of 5 mice). The compound of Example 1 was injected intravenously to the mice at the single dose rate of 0.06 mg/mouse 9 times over the period of from the 7th day after the transplantation to the 20th day. On the 21th day, the mice were anatomized, and the weight of tumors was measured.

[7] = test system: Penicilium citrinum; test: Antifungal action, MIC by serial dilution technique; format: cell-based; settings: 1% glucose bouillon agar
[8] = test system: Piricularia oryzae; test: microbe, parasite or virus in culture; format: cell-based
[9] = test system: Cladosporium herbarum; test: Antifungal action, MIC by serial dilution technique; format: cell-based; settings: 1% glucose bouillon agar
Procedure: (§2) Antifungal action of 1,3-dioctyloxypropane-2-yl 2-trimethylammonioethyl phosphate (Example 1)
(§3) Using typical fungi, the minimal inhibition concentrations (MIC) were determined with the compound of Example 1 by the serial dilution technique on a 1% glucose bouillon agar culture medium.

[10] = test system: Cercospora beticola; test: as above; format: cell-based; settings: 1% glucose bouillon agar
Procedure: as §2, §3

[11] = test system: Elsinoe fawcetti; test: as above; format: cell-based; settings: 1% glucose bouillon agar
Procedure: as §2, §3

[12] = test system: Botrytis cinerea; test: as above; format: cell-based; settings: 1% glucose bouillon agar
Procedure: as §2, §3

[13] = test system: Diaporthe citri; test: as above; format: cell-based; settings: 1% glucose bouillon agar
Procedure: as §2, §3

[14] = test system: Helminthosporium oryzae; test: as above; format: cell-based; settings: Bipolaris oryzae
[15] = test system: P 388 leukemia cells; test: Antitumor activity, P 388 leukemia cells mixed with compound and transplanted subcutaneously, tumor weight; format: in vivo; settings: 1×10^6 P 388 cells mixed with 0.1 g of compound, s.c., CDF1 mice; tumor weight on 10th day
From the text: Antitumor activity of 1,3-dioctyloxypropane-2-yl 2-thiazolioethyl phosphate (Example 3)
P 388 leukemia cells (1×10^6 cells) were mixed with 0.1 g of the compound of Example 3, and transplanted subcutaneously to each of CDF1 mice (a group consisting of 5 mice).

[16] = test system: MM46 cells; test: Antitumor activity, intraperitoneal MM46, administration before and after inoculation, survival; format: in vivo; settings: 5 animals per group; 0.25 mg/mouse i.p., 4 days before and 4 days after 1×10^4 MM46 cells i.p.; C3H/He mice; controls all died within 19 days
Procedure: Antitumor activity of the compound of Example 9
The compound of Example 9 was intraperitoneally administered to C3H/He mice (5 animals per group) in a dose of 0.25 mg/mouse for 4 consecutive days.
On the 5th day, 1×10^4 MM46 cells were intraperitoneally inoculated into each mouse, and the compound of Example 9 was again administered intraperitoneally to the mice in a dose of 0.25 mg/mouse for 4 days starting from day 1 after inoculation.
The mice in the control group all died within 19 days after tumor implantation, whereas, in the drug-treated group, 3 animals survived on day 60.

[17] = test system: sarcoma 180 cells; test: Antitumor activity, intraperitoneal sarcoma 180, three administrations, life span; format: in vivo, ICR mice
From the text: ICR mice (5 animals per group) were intraperitoneally inoculated with 1×10^5 sarcoma 180 cells per mouse. […] The life span prolonging ratio as compared with the control (no drug treatment) group was 198, and 1 animal survived on day 60.

[18] = test system: Meth A cells; test: Antitumor activity, subcutaneous Meth A, administration on the transplanted portion, tumor weight; format: in vivo; settings: 0.25 mg/mouse on the transplanted portion once a day for 4 days; Meth A s.c., CDF1 mice; ten days later
Procedure: Antitumor activity of 1,3-dinonyloxypropane-2-yl 2-trimethylammonioethyl phosphate (Example 9)
Meth A cells (1×10^6 cells per mouse) were transplanted subcutaneously to CDF1 mice (a group consisting of 5 mice). On the other hand, a solution of 0.25 mg/mouse of the compound of Example 9 in 0.05 ml of physilogical saline was given to each of the mice on the portion transplanted with the cells once a day for 4 consecutive days from the 1st day following the transplantation. Ten days later, the tumor tissues were removed, and the weight of tumors was measured.

[19] = test system: sarcoma 180 cells; test: Antitumor activity, intraperitoneal sarcoma 180, 9 consecutive days, life span; format: in vivo; settings: 25 mg/kg i.p., 4×10^5 sarcoma 180 cells i.p., ICR mice
Procedure: Antitumor activity of 1,3-diheptyloxypropane-2-yl 2-trimethylammonioethyl phosphate (Example 10)
Sarcoma 180 cells (4×10^5 cells per mouse) were transplanted intraperitoneally to ICR mice (a group consisting of 5 mice). The compound of Example 10 was administered intraperitoneally to the mice at the single dose rate of 25 mg/kg for 9 consecutive days from the day following transplantation.

[20] = rat, in vivo, iv
Procedure: Male 7-week aged Sprague-Dawley rats (weighing 200 to 290 g) were anesthetized by intraperitoneal administration of 60 mg/kg of pentobarbital sodium, and the left carotids (for the measurement of blood pressure) and left femoral veins (for the intravenous administration) were cannulated.

[21] = test system: platelet; settings: Biochemical and Biophysical Research Communications, 99, 183 (1981); cited from earlier work

Structure (SMILES): CCCCCCCCOCC(COP(=O)([O-])OCC[N+](C)(C)C)OCCCCCCCC (stereo not drawn) [2,3-dioctyloxypropyl 2-trimethylammonioethyl phosphate, reference compound]
- rate of life prolongation against the control group [1]: 195

Structure (SMILES): CCCCCCCCOCC(COCCCCCCCC)OP(=O)([O-])OCC[N+](C)(C)C [Example 1, 1,3-Dioctyloxypropane-2-yl 2-trimethylammonioethyl phosphate]
- MIC [2]: 25 µg/mL
- growth inhibition rate of tumor [3]: 54%
- MIC [4]: 12.5 µg/mL
- rate of life span prolongation against the control group (T/C) [5]: 225
- growth inhibition rate of tumor [6]: 52%
- MIC [7]: 12.5 µg/mL
- MIC [8]: 6.25 µg/mL
- MIC [9]: 6.25 µg/mL
- MIC [10]: 6.25 µg/mL
- MIC [11]: 3.12 µg/mL
- MIC [12]: 3.12 µg/mL
- MIC [13]: 6.25 µg/mL
- rate of life prolongation against the control group [1]: 458
- mice survived 60 days ([1]; group of 5 mice, 1 mg/mouse i.p., sarcoma 180 i.p.): two
- MIC [14]: 3.12 µg/mL

Structure (SMILES): CCCCCCCCOCC(COCCCCCCCC)OP(=O)([O-])OCC[n+]1ccsc1 [Example 3, 1,3-Dioctyloxypropane-2-yl 2-thiazolioethyl phosphate]
- growth inhibition rate of tumor [15]: 83%

Structure (SMILES): CCCCCCCCCOCC(COCCCCCCCCC)OP(=O)([O-])OCC[N+](C)(C)C [Example 9, 1,3-Dinonyloxypropane-2-yl 2-trimethylammonioethyl phosphate]
- animals survived on day 60 [16]: 3 animals
- life span prolonging ratio as compared with the control ([17]; 0.33 mg/mouse three times (hour 1, day 1, day 2), 1×10^5 sarcoma 180 cells i.p., ICR mice): 198
- animal survived on day 60 ([17]; 5 animals per group, 0.33 mg/mouse three times, sarcoma 180 i.p.): 1 animal
- growth inhibition rate of tumor [18]: 76%

Structure (SMILES): CCCCCCCOCC(COCCCCCCC)OP(=O)([O-])OCC[N+](C)(C)C [Example 10, 1,3-Diheptyloxypropane-2-yl 2-trimethylammonioethyl phosphate]
- rate of life span prolongation against the control group (T/C) [19]: 295

Structure (SMILES): CCCCCCCCCCCCCCCCCCOCC(COP(=O)([O-])OCC[N+](C)(C)C)OC (stereo not drawn) [compound (XI)]
- blood pressure lowering action (in words) [20]: possesses blood-pressure lowering action
- platelet aggregating action [21]: has platelet aggregating action
